Test results as given in paper PMC9609178, “Tumor-Specific Monomethyl Auristatin E (MMAE) Prodrug Nanoparticles for Safe and Effective Chemotherapy” (Pharmaceutics, 2022).
Square brackets hold non-standard residues; d marks the D form. Peptide text beside a SMILES is read from it. * marks the point of attachment. Dolaproine = CO[C@@H]([C@@H]1CCCN1)[C@@H](C)C(=O)O; Dil = CC[C@H](C)[C@H](NC)[C@@H](CC(=O)O)OC; X1 = C[C@@H](N*)[C@@H](O)c1ccccc1; NMeV = CN[C@H](C(=O)O)C(C)C

Assays:
4T1 cells [1] = assay: Tubulin formation in 4T1 cells (anti-tubulin antibody staining); assay type: cell-based, murine; settings: after 24 h of treatment; Cy5.5 anti-tubulin antibody
Protocol: Then, cells were fixed with 4% paraformaldehyde fixative for 25 min, and stained with DAPI solution (Invitrogen, Carlsbad, CA, USA) for 15 min in the dark. Finally, the 4T1 cells were observed using a confocal laser scanning microscope (CLSM) equipped with 405 diode (405 nm) and HeNe-Red (633 nm) lasers (Leica, Wetzlar, Germany).

4T1 cells [2] = assay: Cytotoxicity, CCK-8 assay, 4T1 cells; assay type: cell-based, murine; settings: 24 h incubation; CCK-8, 450 nm; read-out: IC50, cell viability, 4T1 cells
Protocol: (§1) First, […] 4T1 or H9C2 cells were seeded in the 96-well cell culture plates. […] Finally, the cell viability of each cell was measured using a microplate reader with 450 nm of wavelength (VERSAmaxTM; Molecular Devices Corp., San Jose, CA, USA).

H9C2 cells = assay: Cytotoxicity, CCK-8 assay, H9C2 cells; assay type: cell-based, rat; settings: 24 h incubation; CCK-8, 450 nm; read-out: IC50, cell viability, H9C2 cells
Protocol: as §1

4T1 tumor = assay: Antitumor efficacy in 4T1 breast tumor models; assay type: in vivo, mice
Protocol: (§2) The antitumor efficacy was evaluated in the breast tumor models. The breast tumor models were prepared via subcutaneous injection of 1 × 10^6 4T1 cells. […] The mice were treated once every three days, and tumor volumes were calculated as the smallest diameter^2 × largest diameter × 0.53. The mice with a tumor volume of 2000 mm^3 or larger were counted as dead. […] The major organs were collected from mice on day 5 after treatments, and structural abnormality in the organ tissues was assessed by staining with H&E.

[3] = Toxicity study in 4T1 tumor-bearing mice (histology, hematology, body weight, survival); assay type: in vivo
Protocol: as §2

[4] = cited from earlier work
Text: Monomethyl auristatin E (MMAE), a synthetic analog of the natural product dolastatin 10, is a potent antimitotic agent that inhibits tubulin polymerization.

CC[C@H](C)[C@@H]([C@@H](CC(=O)N1CCC[C@H]1[C@H](OC)[C@@H](C)C(=O)N[C@H](C)[C@@H](O)c1ccccc1)OC)N(C)C(=O)[C@@H](NC(=O)[C@@H](NC)C(C)C)C(C)C [MMAE, Monomethyl auristatin E] (H-[NMeV]V[Dil][Dolaproine]-X1)
Tubulin formation in 4T1 cells compared to naive cells (4T1 cells [1]): significantly inhibited | IC50 (4T1 cells [2]): 0.92 nM | IC50 (H9C2 cells): 1.17 nM | Tumor growth during monitoring for 15 days (4T1 tumor; 0.1 mg/kg MMAE once every three days, 15 days): rapid tumor growth compared to FRRG-MMAE-treated mice | Tumor volume on day 5 after treatment (4T1 tumor; 0.2 mg/kg based on MMAE contents, once every three days, day 5): 154.73 ± 31.63 mm^3 | Body weight ([3]; 0.2 mg/kg MMAE equivalent once every three days): significant body weight loss | Mice survival ([3]; 0.2 mg/kg MMAE equivalent once every three days, 15 days): all the mice were dead within five days | Hematological parameters (ALB, AST, ALT) ([3]; 0.2 mg/kg MMAE equivalent, after five days of treatment): significant changes | Structural abnormalities in normal organs (liver, lung, spleen, kidney and heart), H&E ([3]; 0.2 mg/kg once every three days, after five days of treatment): severe systemic toxicity | Antitumor efficacy, times more potent than doxorubicin [4]: 100–1000 times
